Measurements as given in US20080317700A1 (priority 2006, published 2008).
Read-outs that look alike come from different tables or passages of the source. Marks after values point to notes of the source that are not given here.

Key:
Assay type in all cases: cell-based
[1] = system: cyanobacteria Synechococcus 7002; assay: Liquid culture growth inhibition (optical density), salt water cyanobacteria; settings: Synechococcus 7002, BG-11 liquid medium, 1 mM herbicide, 7 days; control 0.72
Procedure: (§1) Strains of green algae, cyanobacteria and E. Coli were used as test organisms. The green algae CD 1 Red and cyanobacteria Synechocystos 6803 were obtained from the collection of Prof. George Bullerjahn. Salt water strain of cyanobacteria Synechococcus 7002 was obtained from the collection of Prof. Michael McKay. E Coli DH 5α was obtained from Invitrogen Inc.
Green algae and cyanobacteria were propagated photoautotrophically in 250 mL Erlenmeyer flasks containing 100 mL of liquid BG-11 culture medium (see Supporting Information). The cultures were kept on a rotating shaker (100 rpm) at 25° C. for 4 days and continuously illuminated with cool-white fluorescent light with a constant light intensity of 5000 lux. The grown culture medium was sterilized in an autoclave at 121° C. and 1.05 kg cm^−2 pressure for 20 min. For the cell experiments, 20 mL aliquots of the BG-11 medium containing the green algal ([cells]initial=5.9×10^7 mL^−1) or cyanobacteria cells ([cells]initial=1.7×10^9 mL^−1) were placed in sterile 50 mL Erlenmeyer flasks. CD 1 Red, Synechocystos 6803 and Synechococcus 7002 were then treated with an aliquot of a stock herbicide solution to bring the final herbicide concentration to 1 mM and incubated for 7 days on a rotator shaker (100 rpm) at 25° C. and continuous light intensity of 5000 lux. Cell counts were correlated with the absorbance and measured as a function of time using a Spectronic 20 Genesis spectrophotometer. As previously reported by Ma et al., 5 the optimal wavelength for monitoring culture growth is 680 nm. Experiments for each herbicide were repeated three times. Control and treated cultures were grown under the same conditions of temperature, photoperiod, and agitation. In each experiment, the inhibition of cell growth in treated cultures was monitored spectrophotometrically and compared to the growth in control samples.

[2] = system: E Coli DH 5α; assay: Liquid culture growth inhibition (optical density), E. Coli; settings: for Optical Density at 680 nm, measurements taken after 24 hours of growth: E. Coli, M9 minimum medium, 30 mM herbicide, control 1.30; for Toxicity towards E. Coli (liquid culture): inhibition only during first 10 hours, beyond 24 hours optical density matched controls
Procedure: as §1
E. Coli was propagated heterotrophically in a 2 mL Eppendorf test-tube containing 1.5 mL of liquid M9 minimum medium (see Supporting Information) and kept on a rotating shaker (100 rpm) at 37° C. for 12 hours. The grown culture medium was sterilized at 121° C., 1.05 kg cm^−2 for 20 min. For the cell experiments, 100 mL aliquots of the M9 medium containing the E. Coli cells ([cells]initial=6×10^5 mL^−1) were distributed into sterile 250 mL Erlenmeyer flasks and treated with a stock herbicide solution to obtain a final concentration of 30 mM, followed by an incubation for 24 h on a rotating shaker (100 rpm) at 37° C. […] Control and treated cultures were grown under the same conditions of temperature and shaking. In each experiment, the inhibition of growth in treated cultures was monitored spectrophotometrically and compared to the growth in control samples.

[3] = system: cyanobacteria Synechococcus 7002; settings: Synechococcus 7002, BG-11 agar, 1 mM herbicide; homopolymer as film cast in Petri dish
Procedure: (§2) BG-11 medium containing 1.5 wt. % agar was prepared and sterilized at 121° C., 1.05 kg cm^−2 for 20 minutes. Each herbicide tested was prepared as a 30 mM solution and added to the autoclaved agar medium to yield a 1 mM final concentration of the herbicide. A 20 mL aliquot of the liquid agar was transferred into a standard Petri dish (100×15 mm) and allowed to harden at room temperature. Cell suspensions of green algae CD 1 Red, cyanobacteria Synechocystos 6803 and Synechococcus 7002 were inoculated using a sterile inoculation loop. Dishes were stored at 25° C. under illumination with the cool-white fluorescent light having a constant light intensity of 5000 lx. The experiment for each herbicide was repeated five times. Control and treated cultures grew under the same conditions of temperature and photoperiod. In each experiment, the inhibition of growth in treated cultures was monitored relative to the growth in control samples using qualitative visual observation.
(§3) Additional experiments for testing the toxicity of the homopolymer of AA were implemented. Ten mL of aqueous polymer solution was placed on a sterile Petri dish and left at room temperature until all water was evaporated (3 days) to form a thin polymer film. Twenty mL of the liquid agar was transferred into the Petri dish and allowed to harden at room temperature. Cell suspensions of green algae CD 1 Red, cyanobacteria Synechocystos 6803 and Synechococcus 7002 were inoculated using a sterile inoculation loop. An analogous system containing no polymer film was used as a control for the experiment. Inhibition of growth in treated cultures was monitored relative to the growth in control samples using qualitative visual observations.

[4] = system: cyanobacteria Synechocystos 6803; settings: Synechocystos 6803, BG-11 agar, 1 mM herbicide; homopolymer as film cast in Petri dish
Procedure: as §2, §3

[5] = system: green algae CD 1 Red; settings: BG-11 agar, 1 mM herbicide, homopolymer as film cast in Petri dish
Procedure: as §2, §3

[6] = system: cyanobacteria Synechococcus 7002; assay: microbe, parasite or virus in culture
Procedure: After phototrophical propagation during the 5 days under cool fluorescence light (intensity 5000 lux), the average radii of inhibition zones were measured. Water soaked filter paper circles were used as controls. Experiments for each herbicide concentration were repeated 3 times.

[7] = system: Navicula pelliculosa; assay: Inhibition zones around polymer pellets, diatom Navicula; settings: pellet without herbicide 10 ± 1
Procedure: Rectangular copolymer pellets (15×10×1.5 mm) were formed from a model acrylic resin (designated as 459S2) containing several epoxy acrylic oligomers (57%), acrylic monomeric diluents (43%) and a corresponding amount of herbicide. A designated quantity of herbicide was dispersed or partially dissolved in 459S2 resin using ultrasonication and heat (60° C., overnight). To each sample, 1.5% wt. of commercial photoinitiator (ITX), 5% of ODAB synergist and 0.1% co-photoinitiator (Irgacure 819) were added. Liquid formulations were poured into an open top Teflon mold and irradiated under N2 by a 395 nm LED light source for 5 min followed by pellet removal.
Two different diatom cultures, Phaeodactylum tricornutum and Navicula pelliculosa were used in the biological activity tests. […] Following propagation over 5 days under continuous cool fluorescent light (5000 lx), the average radii of inhibition zones were measured. Experiments for each herbicide concentration were repeated at least two times.

[8] = Syn. 7002, herbicide concentration 0.3 mM, 5 days
[9] = Synechococcus, 120 h, read-out: Average radii of the inhibition zones
[10] = herbicide 0.15 M in 459S2 polymer pellet
[11] = herbicide 0.3 M in 459S2 polymer pellet

Structure (SMILES) | Optical Density at 680 nm after 7 days of media growth [1] | Optical Density at 680 nm, measurements taken after 24 hours of growth [2] | Toxicity towards E. Coli (liquid culture) [2] | Growth on agar plates compared to control (visual) [3] | Growth on agar plates compared to control (visual) [4] | Growth on agar plates compared to control (visual) [5] | Average radii of the inhibition zones [6, 8] | Average radii of the inhibition zones ([6]; Syn. 7002, herbicide concentration 3 mM, 5 days) | zone of inhibition at 30000 µM [6, 9] [mm] | zone of inhibition at 300000 µM [6, 9] [mm] | Diameter of Inhibition Zone (Bleaching indicates no growth detected on 100 mm plate) [7, 10] [mm] | Diameter of Inhibition Zone (Bleaching indicates no growth detected on 100 mm plate) [7, 11] | Average radii of the inhibition zones ([6]; Syn. 7002, herbicide concentration 300 mM, 5 days) | zone of inhibition at 3000 µM ([6]; Synechococcus, 120 h, Syn. 7002, herbicide concentration 3 mM, 5 days, read-out: Average radii of the inhibition zones) [mm] | zone of inhibition at 30000 µM ([6]; Synechococcus, 120 h, Syn. 7002, herbicide concentration 30 mM, 5 days, read-out: Average radii of the inhibition zones) [mm]
C=CC(=O)N(CC(=O)O)CP(=O)(O)O [AA, N-Acryloyl-N-(phosphonomethyl)glycine] | 0.07 | 1.24^c | do not display reasonable toxicity | complete inhibition of growth and bleaching | complete inhibition of growth and bleaching | complete inhibition of growth and bleaching | No | No | 6.5 | 15 | 20 ± 2 | Bleaching |  |  | 
O=C(O)CNCP(=O)(O)O [Glyphosate, N-(Phosphonomethyl)glycine, reference compound] | 0.04 | 1.20^c | do not display reasonable toxicity | complete inhibition of growth and bleaching | complete inhibition of growth and bleaching | complete inhibition of growth and bleaching | No |  |  |  | 22.5 ± 2 | Bleaching | Complete | 6 | 8
